Data as given in ChEMBL document CHEMBL1201862, “PubChem BioAssay data set” (2004).
Active and inactive are the calls of the source.

Key:
[1] = biological target: T1, Replicative DNA helicase DnaB (Mycobacterium tuberculosis, UniProt P9WMR3); assay: DnaB intein splicing inhibitors, dose response, biochemical, cell-free fluorescence (AID 449749); format: functional
T1 sequence (P9WMR3 whole entry): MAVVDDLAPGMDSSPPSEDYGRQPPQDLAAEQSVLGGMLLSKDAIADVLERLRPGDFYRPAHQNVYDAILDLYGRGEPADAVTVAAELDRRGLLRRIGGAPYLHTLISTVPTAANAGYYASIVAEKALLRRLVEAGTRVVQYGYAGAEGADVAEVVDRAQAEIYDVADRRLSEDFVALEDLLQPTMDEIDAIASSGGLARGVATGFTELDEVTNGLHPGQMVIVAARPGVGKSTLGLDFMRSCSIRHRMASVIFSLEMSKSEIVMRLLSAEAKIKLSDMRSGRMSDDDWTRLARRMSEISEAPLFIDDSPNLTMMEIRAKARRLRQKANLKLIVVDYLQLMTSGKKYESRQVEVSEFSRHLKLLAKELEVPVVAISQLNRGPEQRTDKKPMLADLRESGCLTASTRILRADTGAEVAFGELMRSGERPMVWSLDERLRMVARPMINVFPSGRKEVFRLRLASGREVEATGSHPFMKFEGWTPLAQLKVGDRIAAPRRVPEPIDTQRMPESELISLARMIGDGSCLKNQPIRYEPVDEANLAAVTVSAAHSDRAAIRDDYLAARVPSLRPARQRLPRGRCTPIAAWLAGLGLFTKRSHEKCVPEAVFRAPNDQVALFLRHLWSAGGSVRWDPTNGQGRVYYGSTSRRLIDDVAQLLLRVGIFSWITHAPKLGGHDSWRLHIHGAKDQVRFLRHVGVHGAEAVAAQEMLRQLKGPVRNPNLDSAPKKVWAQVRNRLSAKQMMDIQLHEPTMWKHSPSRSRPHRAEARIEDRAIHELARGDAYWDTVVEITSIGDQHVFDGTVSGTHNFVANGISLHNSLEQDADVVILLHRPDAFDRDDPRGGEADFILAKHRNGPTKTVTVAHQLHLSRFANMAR

[2] = biological target: Tyrosyl-DNA phosphodiesterase 2 (Homo sapiens, UniProt O95551); assay: potency against TDP2 phosphodiesterase activity – biochemical, epi absorbance, IC50, dose response (AID 743297)
Sequence of Tyrosyl-DNA phosphodiesterase 2 (O95551 whole entry): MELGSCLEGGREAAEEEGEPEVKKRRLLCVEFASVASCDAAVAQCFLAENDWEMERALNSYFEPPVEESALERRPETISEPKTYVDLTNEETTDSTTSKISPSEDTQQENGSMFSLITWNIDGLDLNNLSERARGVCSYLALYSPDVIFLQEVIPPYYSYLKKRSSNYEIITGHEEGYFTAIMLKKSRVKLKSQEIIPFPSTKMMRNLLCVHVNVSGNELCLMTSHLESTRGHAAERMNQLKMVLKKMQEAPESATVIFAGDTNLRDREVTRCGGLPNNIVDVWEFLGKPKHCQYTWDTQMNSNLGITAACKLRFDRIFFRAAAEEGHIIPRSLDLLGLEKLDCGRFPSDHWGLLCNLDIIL

Protein RecA = biological target: T2, Protein RecA (Mycobacterium tuberculosis, UniProt P9WHJ3); assay: Fluorescence Cell-Free Homogeneous Dose Retest to Identify Inhibitors of RecA-Intein Splicing Activity. [Related pubchem assays (depositor defined):AID2097, AID2223, AID489010, AID492950]; format: functional
T2 sequence (P9WHJ3 whole entry): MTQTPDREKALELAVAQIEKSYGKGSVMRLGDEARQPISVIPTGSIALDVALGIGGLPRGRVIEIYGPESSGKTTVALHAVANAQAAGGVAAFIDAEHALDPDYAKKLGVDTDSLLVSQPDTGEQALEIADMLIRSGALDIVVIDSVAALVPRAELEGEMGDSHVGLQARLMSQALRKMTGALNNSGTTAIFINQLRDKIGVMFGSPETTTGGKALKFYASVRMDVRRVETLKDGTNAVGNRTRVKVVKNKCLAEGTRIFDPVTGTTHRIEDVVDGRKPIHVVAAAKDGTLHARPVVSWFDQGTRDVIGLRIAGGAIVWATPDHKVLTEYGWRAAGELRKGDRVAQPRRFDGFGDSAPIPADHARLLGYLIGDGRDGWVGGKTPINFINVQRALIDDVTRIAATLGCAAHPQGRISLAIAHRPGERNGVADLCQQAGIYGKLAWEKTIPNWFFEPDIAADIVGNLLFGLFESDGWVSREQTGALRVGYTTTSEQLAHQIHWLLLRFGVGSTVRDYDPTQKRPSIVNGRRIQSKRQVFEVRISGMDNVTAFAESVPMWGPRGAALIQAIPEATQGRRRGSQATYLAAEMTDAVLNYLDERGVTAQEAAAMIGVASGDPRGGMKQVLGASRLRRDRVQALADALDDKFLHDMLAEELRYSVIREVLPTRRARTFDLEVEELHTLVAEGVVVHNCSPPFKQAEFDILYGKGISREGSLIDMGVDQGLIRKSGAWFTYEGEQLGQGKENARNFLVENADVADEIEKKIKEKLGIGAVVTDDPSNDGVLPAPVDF

[3] = blockade of melanocortin 4 receptor signaling – cell-based, plate reader, cherry pick, counter-screen for LGR2 antagonist project, dose response (AID 743444); format: functional;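 note: transfected HEK 293 cells stimulated with alpha-MSH peptide; potency of inhibitors of the alpha-MSH evoked signal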
[4] = viability loss in HEK293 cells – cell-based, plate reader, cherry-picked samples, cytotoxicity control, dose response (AID 743446); format: functional
[5] = blockers of bursicon-stimulated LGR2 cAMP reporter – cell-based, HEK293, CRE-luciferase reporter, cherry pick, set 2, dose response (AID 743343); format: functional;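 note: transfected cells were stimulated with diluted bursicon conditioned medium after compound addition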
[6] = A549 cell cytotoxicity, dose response, cytotoxicity control, plate reader, cherry-pick, antagonist series (AID 743412); format: functional, cell-based
[7] = biological target: Luciferin 4-monooxygenase (Photinus pyralis, UniProt P08659); assay: inhibition of purified Photinus pyralis luciferase – biochemical, luminescence, dose response (AID 1891)
Sequence of Luciferin 4-monooxygenase (P08659 whole entry): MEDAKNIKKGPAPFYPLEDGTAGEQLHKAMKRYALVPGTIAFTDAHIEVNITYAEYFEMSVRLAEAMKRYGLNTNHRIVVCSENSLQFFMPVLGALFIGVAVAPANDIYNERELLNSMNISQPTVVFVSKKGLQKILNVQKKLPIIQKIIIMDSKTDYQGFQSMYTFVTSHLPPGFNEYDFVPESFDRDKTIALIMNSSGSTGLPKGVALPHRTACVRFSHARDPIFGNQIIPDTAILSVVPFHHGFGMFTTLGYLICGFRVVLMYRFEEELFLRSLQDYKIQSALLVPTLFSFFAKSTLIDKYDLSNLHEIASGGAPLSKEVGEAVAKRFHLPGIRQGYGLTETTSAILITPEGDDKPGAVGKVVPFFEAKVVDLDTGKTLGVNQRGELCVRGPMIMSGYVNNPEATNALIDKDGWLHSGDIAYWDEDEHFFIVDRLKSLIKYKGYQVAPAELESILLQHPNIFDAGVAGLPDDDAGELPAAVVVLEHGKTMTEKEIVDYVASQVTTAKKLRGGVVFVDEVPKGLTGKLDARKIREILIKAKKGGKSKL

[8] = Luminescence Cell-Based Dose Confirmation HTS to Identify Inhibitors of Platelet Dense Granule Release. [Related pubchem assays: 1663 (Primary HTS), 1678 (Summary of Project)]; format: functional
[9] = toxicity toward HepG2 liver cells – cell-based, plate reader, cherry-pick, antagonist series, cytotoxicity control, dose response (AID 743416); format: functional
[10] = biological target: T3, Zinc finger protein mex-5 (Caenorhabditis elegans, UniProt Q9XUB2); assay: potency of MEX-5 RNA-binding blockers – biochemical, C. elegans, fluorescence polarization, dose response (AID 1960)
T3 sequence (Q9XUB2 whole entry): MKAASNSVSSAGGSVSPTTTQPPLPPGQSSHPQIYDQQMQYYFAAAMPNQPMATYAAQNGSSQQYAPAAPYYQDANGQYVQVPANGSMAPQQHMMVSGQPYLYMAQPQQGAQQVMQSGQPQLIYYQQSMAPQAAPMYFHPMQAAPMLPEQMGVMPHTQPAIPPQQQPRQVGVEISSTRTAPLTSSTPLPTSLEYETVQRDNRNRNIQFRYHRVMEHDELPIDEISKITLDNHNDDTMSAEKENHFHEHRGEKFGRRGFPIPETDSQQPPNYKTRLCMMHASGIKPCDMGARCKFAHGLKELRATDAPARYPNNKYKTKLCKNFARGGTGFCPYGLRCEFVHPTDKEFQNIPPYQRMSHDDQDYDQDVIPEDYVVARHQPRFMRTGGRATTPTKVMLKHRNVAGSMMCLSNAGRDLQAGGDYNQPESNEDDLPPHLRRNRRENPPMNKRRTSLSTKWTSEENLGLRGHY

[11] = biological target: T4, RNA-binding protein pos-1 (Caenorhabditis elegans, UniProt G5EF15); assay: disruptors of C. elegans POS-1 RNA interaction – biochemical, fluorescence polarization, dose response (AID 1964);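 note: purified POS-1 fused to maltose binding protein made in E. coli; potency of compounds blocking POS-1 binding to fluorescent RNA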
T4 sequence (G5EF15 whole entry): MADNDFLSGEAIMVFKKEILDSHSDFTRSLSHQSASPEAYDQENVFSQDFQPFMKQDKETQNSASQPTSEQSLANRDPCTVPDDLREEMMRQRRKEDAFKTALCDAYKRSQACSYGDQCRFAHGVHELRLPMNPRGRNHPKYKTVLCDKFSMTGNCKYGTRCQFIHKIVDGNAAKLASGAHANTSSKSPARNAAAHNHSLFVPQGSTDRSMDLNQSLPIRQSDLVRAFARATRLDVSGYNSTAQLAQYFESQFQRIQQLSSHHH

[12] = biological target: Histone-lysine N-methyltransferase NSD2 (Homo sapiens, UniProt O96028); format: biochemical
Sequence of Histone-lysine N-methyltransferase NSD2 (O96028 whole entry): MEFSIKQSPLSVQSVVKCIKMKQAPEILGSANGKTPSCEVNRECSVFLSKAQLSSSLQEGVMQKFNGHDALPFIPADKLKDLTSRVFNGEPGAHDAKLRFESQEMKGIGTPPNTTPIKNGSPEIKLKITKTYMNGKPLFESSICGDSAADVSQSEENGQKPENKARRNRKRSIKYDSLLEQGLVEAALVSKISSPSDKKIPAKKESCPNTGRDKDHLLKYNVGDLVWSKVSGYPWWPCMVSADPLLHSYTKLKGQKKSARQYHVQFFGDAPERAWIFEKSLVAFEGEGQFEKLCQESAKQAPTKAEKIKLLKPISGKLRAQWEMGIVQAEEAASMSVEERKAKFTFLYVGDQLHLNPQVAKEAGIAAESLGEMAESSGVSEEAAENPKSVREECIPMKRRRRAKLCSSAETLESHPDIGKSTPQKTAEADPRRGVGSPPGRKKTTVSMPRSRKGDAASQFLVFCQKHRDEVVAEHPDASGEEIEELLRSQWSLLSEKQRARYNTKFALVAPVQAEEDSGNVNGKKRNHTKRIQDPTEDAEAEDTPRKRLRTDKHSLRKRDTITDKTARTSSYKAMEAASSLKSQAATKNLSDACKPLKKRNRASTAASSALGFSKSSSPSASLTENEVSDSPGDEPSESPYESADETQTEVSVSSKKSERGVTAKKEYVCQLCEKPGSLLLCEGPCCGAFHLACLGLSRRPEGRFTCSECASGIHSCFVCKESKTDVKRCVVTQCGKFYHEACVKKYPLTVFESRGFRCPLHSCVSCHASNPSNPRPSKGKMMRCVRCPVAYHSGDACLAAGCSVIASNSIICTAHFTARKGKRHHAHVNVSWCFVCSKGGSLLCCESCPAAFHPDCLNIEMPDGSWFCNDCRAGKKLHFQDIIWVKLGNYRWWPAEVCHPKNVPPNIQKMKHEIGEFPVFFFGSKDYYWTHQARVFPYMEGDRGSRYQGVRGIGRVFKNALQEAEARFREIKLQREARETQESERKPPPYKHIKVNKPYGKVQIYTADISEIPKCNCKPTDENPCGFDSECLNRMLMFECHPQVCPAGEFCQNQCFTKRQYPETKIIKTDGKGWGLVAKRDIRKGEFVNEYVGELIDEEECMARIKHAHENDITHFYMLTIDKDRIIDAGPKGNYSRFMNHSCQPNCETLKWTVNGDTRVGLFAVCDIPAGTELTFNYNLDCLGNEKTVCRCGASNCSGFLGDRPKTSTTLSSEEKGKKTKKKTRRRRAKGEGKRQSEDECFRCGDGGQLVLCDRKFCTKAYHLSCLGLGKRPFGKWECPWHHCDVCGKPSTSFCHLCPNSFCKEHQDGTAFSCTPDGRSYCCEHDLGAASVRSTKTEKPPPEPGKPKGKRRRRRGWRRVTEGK

SMILES | AC50 [1] | IC50 [2] | EC50 (Protein RecA) | AC50 [3] | AC50 [4] | AC50 [5] | AC50 [6] | EC50 [7] | EC50 [8] | AC50 [9] | EC50 [10] | EC50 [11] | AC50 [12]
COc1ccc(/C=C2/C(=O)N(c3ccccc3)N=C2C)cc1Br | 2.77 µM (active) | 102 µM (inactive) | 2.3 µM (active) |  |  |  |  |  |  |  |  |  | 
Cc1cccc(NC(=O)c2ccc3c(c2)OCCO3)c1 |  |  |  | 9.29 µM (active) | > 52 µM (inactive) | 7.92 µM (active) | > 52 µM (inactive) | 6.2 µM (active) | 6.74 µM (active) | > 52 µM (inactive) |  |  | 
CC1=NN(c2ccc(C(=O)O)c(N)c2)C(=O)C1 | 3.01 µM (active) |  | 1.98 µM (active) |  |  |  |  |  |  |  | 38.3 µM (active) | 85.5 µM (active) | > 20 µM (inactive)
